Results from patent US11684594B2, “Antifungal prophylaxis for cornea” (PRESIDENT AND FELLOWS OF HARVARD COLLEGE, priority 2020, dated 2023).
“Also recorded” adds a separate entry of the source. Read-outs that look alike come from different tables or passages of the source.

What was measured:
C. albicans (ATCC 24433) = assay: In vitro time kill test, yeast; assay type: cell-based, Candida albicans; settings: for Reduction in viable colonies: FIG. 1A, full strength; for Ratio fungicidal activity/cytotoxicity: FIG. 3, # of log10 reduction / fold-change in Trypan Blue staining vs PBS (HCLE), 1 min contact, C. albicans
Method: (§1) In Vitro Time Kill Tests. Microtiter time kill tests were carried out in vitro according to the published CLSI methods (M27-A2).^22
The inoculum was prepared by adjustment of the optical density at 600 nm (OD600) to 1.0 (corresponding to approximately 1×10^6 CFU/mL), and dilution by 1:10 in the final solution. To confirm the starting inoculum size, yeasts were plated […] and colonies counted after growth for 24 hrs at 37° C. The test solutions were neutralized at each time point by ten-fold dilution in Dey-Engley neutralizing broth (Sigma-Aldrich; St Louis, Mo.), and serially track diluted (PMID: 9343684) on Sabouraud dextrose agar (six serial 1:10 dilutions, 0.01 mL each) in technical triplicate. Colonies were counted and recorded following aerobic incubation for 24 hrs at 37° C.
(§2) To investigate the fungicidal activity of various antibiotics and antimicrobials, the reduction in fungal load after short contact times (0-15 min, FIGS. 2-3), to account for the effect of rapid dilution by the tear film, as occurs in patients after topical instillation, was measured.^23 The detection limit for time kill tests was approximately 100 CFU/mL for C. albicans, and 1 CFU/mL for F. solani and A. fumigatus (corresponding to a ≥3 log difference from the starting inoculum). 20-300 cells were considered a reliable counting range per dilution, and values were averaged when more than one dilution in the same plate were within this range.

[1] = test system: Candida albicans (ATCC 24433), Fusarium solani (ATCC MYA-3636), and Aspergillus fumigatus (ATCC MYA-3626); assay: In vitro antifungal testing, statements not resolved by species; assay type: cell-based; settings: species not resolved; for Antifungal / fungicidal activity in vitro: agents at eye-drop or stated concentration; for Efficacy/toxicity ratio, overall rank: fungicidal activity vs HCLE cytotoxicity
Method: Several commonly used antibiotics were tested in vitro against Candida albicans (ATCC 24433), Fusarium solani (ATCC MYA-3636), and Aspergillus fumigatus (ATCC MYA-3626). Time kill activity and minimum inhibitory concentrations (MIC) were determined. Also the antiseptics benzalkonium chloride (BAK), povidone-iodine (PI), and ionic liquids (ILs) consisting of a 1:1 mixture of choline and undecanoic acid, were tested. Toxicity was assayed in vitro on cultures of human corneal epithelial cells, subjected to Trypan Blue staining. Adhesion and tissue invasion experiments were also carried out, with or without γ-irradiation, and by analysis with fluorescent microscopy.
as §1

[2] = test system: A. fumigatus (ATCC MYA-3626); assay: In vitro time kill test, filamentous fungi; assay type: cell-based, Aspergillus fumigatus; settings: for Ratio fungicidal activity/cytotoxicity: FIG. 3, # of log10 reduction / fold-change in Trypan Blue staining vs PBS (HCLE), 1 min contact, A. fumigatus
Method: as §1
(§3) ii) Filamentous fungi: The antibiotic solutions, at either full or 1/10 strength, and antiseptics were inoculated with approximately 2×10^5-2×10^6 conidia/mL of F. solani or A. fumigatus in RPMI broth (buffered with MOPS at pH 7.0; Mediatech; Manassas, Va.) for 0-15 min. Conidia were collected by flooding the agar plates with 10 mL of sterile 1×PBS and 0.1% Tween® 20 (Sigma Aldrich; St Louis, Mo.). The solution was transferred to a sterile conical tube, and particles were allowed to settle for 10 min. The resulting supernatant was transferred to a new sterile conical tube and centrifuged at 3,000×g for 5 min. The supernatant was discarded, the remaining pellet was re-suspended in RPMI broth (buffered with MOPS at pH 7.0), and the OD600 was adjusted to 1.0. In the final test solutions, at each time point the inoculum was diluted 1:10 and neutralized in Dey-Engley neutralizing broth (Sigma-Aldrich; St Louis, Mo.). Neutralized cultures were then serially diluted and plated on Sabouraud dextrose agar (two serial 1:10 dilutions, 0.1 mL each) in technical duplicate. Viable conidia were counted and recorded following aerobic incubation for 48 hrs (or as soon as growth was visible) at 25-35° C.
as §2

[3] = test system: human corneal-limbal epithelial cells (HCLE); assay type: cell-based; settings: for Cytotoxicity / toxicity: HCLE cells, post-exposure Trypan blue staining; for Trypan Blue staining (% stained area per image) compared to control treatment TX-100 (1%): FIG. 2A, confluent HCLE monolayers, 1 min of contact, BAK 40 µg/mL, PI 0.5%, #3-IL 10 mM
Method: In Vitro Toxicity Tests. Trypan Blue assays for toxicity of various antimicrobial agents were conducted using human corneal cells. Telomerase-immortalized human corneal-limbal epithelial cells (HCLE) were thawed at 37° C. and quickly transferred to a sterile T75 cell culture flask. Cells were grown in keratinocyte serum-free medium (KSFM; Gibco™; Thermofisher Scientific; Waltham, Mass.) supplemented with bovine pituitary extract (25 μg/mL), epidermal growth factor (0.2 ng/mL), calcium chloride (0.4 mM CaCl2[…]2H2O; Sigma-Aldrich; St Louis, Mo.), and 1× penicillin/streptomycin, at 37° C. with 5% CO2. Once cells were confluent, they were passaged following trypsinization in 12- or 24-well plates. After incubation with Trypsin-EDTA (0.05%, Gibco™; Thermofisher Scientific; Waltham, Mass.) for 5-10 min at 37° C. with 5% CO2, the reaction was stopped with an equivalent volume of neutralizing medium (Dulbecco's Modified Eagle Medium/Nutrient Mixture F-12, DMEM/F-12, with HEPES and 10% newborn calf serum), centrifuged at 5,000×g for 5 min, and re-suspended in supplemented KSFM. Experiments were performed using cells from passages 31 to 36. Once cells reached confluency, they were gently washed twice with DMEM/F-12 (Gibco™; Thermofisher Scientific; Waltham, Mass.) and incubated with an antimicrobial agent for 1 min (n=2 wells per group). Controls included 1×PBS (diluent) and 1% TX-100 (cell permeabilizer). After exposure to various agents, the cells were washed three times with DMEM/F-12, incubated with 0.2% Trypan Blue for 5 min, and washed again three times with DMEM/F-12. The remaining media was aspirated and replaced with 1×PBS for imaging. Macro-images of the culture plate were taken with a smartphone camera (iPhone 7; Apple Inc.; Cupertino, Calif.), and 10× images were taken with an inverted microscope (Eclipse TS100; Nikon; Tokyo, Japan) attached to a digital camera (SPOT Insight Fire Wire; Diagnostic Instruments Inc.; Sterling Heights, Mich.). 3-6 images/well were obtained in clockwise direction from areas immediately adjacent to the center of the well, and without overlapping areas. Images were quantified in ImageJ Fiji software to determine the amount of cell uptake of Trypan Blue. Macros were created from the Color Threshoulder plugin (G. Landini) to batch process the images after color matching in Photoshop to reference images per treatment group. % Area of Trypan Blue staining per image was calculated as follows: (area of blue/area of all)×100%.

[4] = test system: F. solani (ATCC MYA-3636); assay: In vitro time kill test, filamentous fungi; assay type: cell-based, Fusarium solani
Method: as §1, §3, §2

[5] = cited from earlier work
[6] = FIG. 1C, without BAK, MOX 5 mg/mL, GAT 5 mg/mL, CHL 5 mg/mL, VAN 14 mg/mL, within 120 min
[7] = FIG. 1B, tenth dilution, within 120 min
[8] = full strength (10,000 u/mL PMB, 40 g/mL BAK, 1 mg/mL TMP), within 120 min

Row | Molecule | Fungicidal activity (words) (C. albicans (ATCC 24433); [6]) | Antifungal / fungicidal activity in vitro [1] | Efficacy/toxicity ratio, overall rank [1] | Fungicidal activity (words) (C. albicans (ATCC 24433); [7]) | Fungicidal activity (words) (C. albicans (ATCC 24433); [8]) | other results
1 | COc1c(N2CCNC(C)C2)c(F)cc2c(=O)c(C(=O)O)cn(C3CC3)c12 (centres unmarked) [GAT, gatifloxacin] | fungicidal activity was not observed; also recorded: no effect | no effect | – | – | – | –
2 | N=C(NCCCCCCNC(=N)NC(=N)Nc1ccc(Cl)cc1)NC(=N)Nc1ccc(Cl)cc1.O=C(O)[C@H](O)[C@@H](O)[C@H](O)[C@H](O)CO.O=C(O)[C@H](O)[C@@H](O)[C@H](O)[C@H](O)CO [CDG, chlorhexidine digluconate] | – | rapid and broad fungicidal activity; also recorded: effective | rank lower than PI | – | – | Contact time required for the same effect as PI and the novel IL (≥3 log10 reduction) (C. albicans (ATCC 24433); FIG. 2B, CDG 0.05%): 5 min; Ratio fungicidal activity/cytotoxicity [2]: lowest ratio; Cytotoxicity / toxicity [3]: high cytotoxicity; also recorded: too toxic
3 | COc1c(N2C[C@@H]3CCCN[C@@H]3C2)c(F)cc2c(=O)c(C(=O)O)cn(C3CC3)c12 [MOX, moxifloxacin] | no effect | no effect | – | – | – | –
4 | O=C(N[C@H](CO)[C@H](O)c1ccc([N+](=O)[O-])cc1)C(Cl)Cl [CHL, chloramphenicol] | fungicidal activity was not observed; also recorded: no effect | no effect; also recorded: ineffective | – | – | – | –
5 | benzalkonium chloride [BAK] | – | moderate antifungal activity | – | fungicidal activity was not observed | comparable to the commercially prepared Polytrim® | Reduction in viable colonies (C. albicans (ATCC 24433); within 60 min): 2 log10; Reduction in viable colonies (C. albicans (ATCC 24433); within 120 min): 3 log10; Ratio fungicidal activity/cytotoxicity (C. albicans (ATCC 24433)): lowest ratio; Reduction in viable conidia ([4]; FIG. 2C, within 1 min of contact, Polytrim full strength, PI 0.5%, BAK 40 µg/mL, #3-IL 10 mM): 2 log10; Trypan Blue staining (% stained area per image) compared to control treatment TX-100 (1%) [3]: significantly lower amount of staining
6 | COc1cc(Cc2cnc(N)nc2N)cc(OC)c1OC [TMP, trimethoprim] | – | no effect; also recorded: ineffective | – | fungicidal activity was not observed | no effect | –
7 | polymyxin B sulfate [PMB] | – | moderate antifungal activity | – | fungicidal activity was not observed | comparable to the commercially prepared Polytrim® | Reduction in viable colonies (C. albicans (ATCC 24433); within 60 min): 2 log10; Reduction in viable colonies (C. albicans (ATCC 24433); within 120 min): 3 log10
8 | povidone iodine [PI] | – | rapid and potent fungicidal activity | good efficacy/toxicity ratio; also recorded: ranks second after the novel IL | – | – | Ratio fungicidal activity/cytotoxicity (C. albicans (ATCC 24433)): highest ratios; Reduction (kill of C. albicans) (C. albicans (ATCC 24433); PI 0.01-0.1%, within 120 min): < 1 log; Reduction (kill of C. albicans) (C. albicans (ATCC 24433); PI 0.5-1%, within 1 min): ≥ 3 log; Ratio fungicidal activity/cytotoxicity ([4]; FIG. 3, # of log10 reduction / fold-change in Trypan Blue staining vs PBS (HCLE), 1 min contact, F. solani): highest ratios; also recorded: rank highest for F. solani; Reduction in viable conidia ([2]; FIG. 2D, within 1 min, PI 0.5%, #3-IL 10 mM, CDG 0.05%): 2 log10; Ratio fungicidal activity/cytotoxicity [2]: highest ratios; Trypan Blue staining (% stained area per image) compared to control treatment TX-100 (1%) [3]: significantly lower amount of staining; Tolerability on instillation into the eye ([5]; 1% concentration): well tolerated; Tolerability on instillation into the eye ([5]; 5% solution): acutely painful; Tolerability / ocular safety (words) ([5]; clinical or long-term topical ocular use): ocular inflammation from long-term use has occurred
9 | CN[C@H](CC(C)C)C(=O)N[C@H]1C(=O)N[C@@H](CC(N)=O)C(=O)N[C@H]2C(=O)N[C@H]3C(=O)N[C@H](C(=O)N[C@H](C(=O)O)c4cc(O)cc(O)c4-c4cc3ccc4O)[C@H](O)c3ccc(c(Cl)c3)Oc3cc2cc(c3O[C@@H]2O[C@H](CO)[C@@H](O)[C@H](O)[C@H]2O[C@H]2C[C@](C)(N)[C@H](O)[C@H](C)O2)Oc2ccc(cc2Cl)[C@H]1O [VAN, vancomycin] | fungicidal activity was not observed; also recorded: no effect | no effect; also recorded: ineffective | – | – | – | –
10 | CCCCCCCCCCCCCC(=O)NCCCN(C)C [Aldox, myristamidopropyl dimethylamine] | – | rapid and broad fungicidal activity | rank lower than PI | – | – | Cytotoxicity / toxicity [3]: high cytotoxicity
